This is an account of results in patent US20240197700A1, “Methods and Compositions for Treating Lysosomal Storage Disorders” (Sanford Health, priority 2021, published 2024).

“Also recorded” adds a separate entry of the source.

The test deals with NCL MEFs. The test is described as follows: Autofluorescent storage material (ASM) in Batten disease mouse embryonic fibroblasts. It is filed as cell-based. How it is done: Specific experimental details are included in figure legends. In general, after collection and preparation, MEFs and PNCs were dosed with vehicle or AF38469 (40 nM, 400 nM. or 4 μM) on DIV3 and DIV5. On DIV7, cells were treated with the following dyes: Hoechst 33342 (1:1000 dilution), LysoTrackerT™ Red DND-99 (1:10,000 dilution), fixed, and imaged. Mice were given vehicle or AF38469 (78.125 μg/ml, 3.125 μg/ml, 0.3125 μg/ml or 0.03125 μg/ml equating approximately to 250 μg/mouse/day, 10 μg/mouse/day, 1 μg/mouse/day, and […], respectively, given a mouse's daily water intake of approximately 3.2 ml per day) in drinking water beginning at wean. Body weight was measured bi-weekly, and a force actimeter test was performed on Cln2^R207X mice at 10 weeks of age. Body weight was measured every month for Cln3^Δex7/8 mice. At 11 and 16 weeks of age, respectively, Cln2^R207X and Cln3^Δex7/8 mice along with age matched wild type control mice were CO2 euthanized and intracardially perfused with PBS. Brains were collected and placed on a 1 mm sagittal brain block. Brains were sliced at the midline and 3 mm right of the midline. One hemisphere was fixed in 4% PFA and sectioned at 50 microns on a vibratome. Immunohistochemistry was performed on free-floating sections. For mitochondrial ATP synthase subunit C (SubC), glial fibrillary acidic protein (GFAP), and cluster of differentiation 68 (CD68) immunolabeling, primary antibodies included anti-SubC (Abcam, ab181243; 1:1000), anti-GFAP (Dako, Z0334; 1:5000), anti-CD68 (AbD Serotec, MCA1957; 1:2000), and secondary antibodies included anti-rabbit biotinylated (Vector Labs, BA-1000 1:1000) and anti-rat (Vector Labs, BA-9400 1:1000). Coverslips were mounted on slides using antifade-mounting media and were stored in the dark before imaging. Sections were imaged and analyzed using an Aperio Digital Pathology Slide Scanner (AT2) and associated software. Images were extracted from S1BF of the somatosensory cortex and the VPM/VPL of the thalamus, with multiple images taken of multiple tissues from each animal.
• An increase in percent area or total area of positive autofluorescent storage material (ASM) signal in untreated NCL MEFs or PNCs relative to age-matched, wild type MEFs or PNCs is considered an increase in the accumulation of autofluorescent storage material, reflecting disease-related lysosomal dysfunction. • A decrease in percent area or total area of positive autofluorescent storage material signal in AF38469 treated MEFs and PNCs relative to age-matched, vehicle treated MEFs and PNCs is considered a reduction in the accumulation of autofluorescent storage material and thus a decrease in disease-related lysosomal dysfunction. • LysoTracker™ is an acidophilic dye that labels lysosomes and accumulation increases with an increase in lysosome size or number. Cell and mouse models of lysosomal storage disorders often have increased accumulation of lysosomes and therefore have a stronger LysoTracker™ signal. […]

semaglutide: the “accumulation of autofluorescent storage material (ASM)” value (shortened to “accumulation”) (semaglutide 10 nM, 100 nM, 1 μM, Cln1^R151X, Cln2^R207X, Cln3^Δex7/8, Cln6^nclf, Cln8^mnd MEFs) is “had no impact”. Regarding `CC[C@H](C)[C@H](N)C(=O)NCCN1CCOCC1` [LM11A-31, N-[2-(morpholin-4-yl)ethyl]-L-isoleucinamide], the “accumulation” value is, setting by setting: (LM11A-31 100 nM, 1 μM, 10 μM, Cln1^R151X, Cln6^nclf, Cln8^mnd MEFs, DIV7) “did not reduce”; (LM11A-31 (mid to high doses), Cln2^R207X and Cln3^Δex4/8 (so in the source) MEFs) “trended towards reductions; also recorded: decreasing trend”. As to `Cc1cccc(NC(=O)c2ccc(C(F)(F)F)cc2C(=O)O)n1` [AF38469, 2-((6-methylpyridin-2-yl)carbamoyl)-5-(trifluoromethyl)benzoic acid], the “accumulation” value is “significantly reduced” (40 nM, 400 nM, 4 μM, Cln1^R151X, Cln2^R207X, Cln3^Δex7/8, Cln6^nclf, Cln8^mnd MEFs, DIV7) and “did not have an impact” (Cln11^−/− MEFs, DIV7).
